Test results from ChEMBL document CHEMBL3860106, “Identification of the Binding Site of Chroman-4-one-Based Sirtuin 2-Selective Inhibitors using Photoaffinity Labeling in Combination with Tandem Mass Spectrometry” (J Med Chem, 2016).
The source made the active and inactive calls. The rule behind the calls is not given here.

How the values were obtained:
[1] = molecular target: T1, NAD-dependent protein deacetylase sirtuin-2 (Homo sapiens) (UniProt Q8IXJ6); experiment: Inhibition of SIRT2 (unknown origin) at 200 uM by fluorescence-based assay
T1 sequence (whole entry): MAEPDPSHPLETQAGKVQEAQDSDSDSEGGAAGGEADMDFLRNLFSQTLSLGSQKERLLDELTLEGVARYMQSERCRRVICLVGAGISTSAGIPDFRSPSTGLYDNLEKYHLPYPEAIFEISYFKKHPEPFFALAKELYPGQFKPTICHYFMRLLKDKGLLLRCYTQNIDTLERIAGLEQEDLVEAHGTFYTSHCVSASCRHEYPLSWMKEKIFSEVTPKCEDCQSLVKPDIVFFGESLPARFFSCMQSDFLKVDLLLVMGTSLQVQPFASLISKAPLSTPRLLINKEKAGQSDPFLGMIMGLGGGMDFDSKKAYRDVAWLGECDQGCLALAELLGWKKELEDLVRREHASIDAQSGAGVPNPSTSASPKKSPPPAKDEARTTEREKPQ

[2] = Drug metabolism assessed as compound formation using compound 4 irradiated with 365 nm 23 mW/cm2 UV light using high-power light-emitting diode by UV/vis spectroscopy; format: ADME
[3] = molecular target: T1, NAD-dependent protein deacetylase sirtuin-2 (Homo sapiens); experiment: Binding affinity to recombinant SIRT2 (unknown origin) assessed as photoaffinity labeling at H187 residue at 400 uM in presence of NAD+ and peptide substrate by LC-MS/MS method
[4] = Photo activation assessed as [photo-decomposition irradiated with 365 nm 23 mW/cm2 UV light using high-power light-emitting diode by 1H and 19F NMR spectroscopy; format: physicochemical
[5] = molecular target: T2, NAD-dependent protein deacetylase sirtuin-2 (Homo sapiens, UniProt Q8IXJ6); experiment: Inhibition of SIRT2 (unknown origin) by fluorescence-based assay
T2 sequence (Q8IXJ6 whole entry): T1 sequence (whole entry)

[6] = molecular target: T1, NAD-dependent protein deacetylase sirtuin-2 (Homo sapiens); experiment: Binding affinity to recombinant SIRT2 (unknown origin) assessed as detection of tryptic peptide with amino acid sequence 175-IAGLEQEDLVEAHGTFYTSHCVSASCRHEYPLSWMK-210 at 400 uM in presence of NAD+ and peptide substrate by LC-MS/MS method

| inhibition [1] [%] | Drug uptake [2] | Activity [3] | Drug metabolism [4] | IC50 [5] [µM] | Activity [6] | Structure (SMILES) |
| --- | --- | --- | --- | --- | --- | --- |
| 51 | – | – | – | – | – | CCCCCC1CC(=O)c2cc(N=[N+]=[N-])ccc2O1 (configuration not stated) |
| – | Metabolite_Detected | – | – | – | – | CCCCCC1CC(=O)c2cc(C(=[N+]=[N-])C(F)(F)F)ccc2O1 (configuration not stated) |
| 78 | – | Active | Metabolite_Detected | 8.2 | Active | CCCCCC1CC(=O)c2cc(C3(C(F)(F)F)N=N3)ccc2O1 (configuration not stated) |
